Experimental findings from patent publication US20060160851A1, “Substituted piperidine carbamates” (Novo Nordisk A/S, priority 2003, published 2006) are described below.

This test addresses T1, hormone sensitive lipase (Homo sapiens, UniProt Q05469).
T1 construct: made in house
T1 sequence (Q05469 1-1076): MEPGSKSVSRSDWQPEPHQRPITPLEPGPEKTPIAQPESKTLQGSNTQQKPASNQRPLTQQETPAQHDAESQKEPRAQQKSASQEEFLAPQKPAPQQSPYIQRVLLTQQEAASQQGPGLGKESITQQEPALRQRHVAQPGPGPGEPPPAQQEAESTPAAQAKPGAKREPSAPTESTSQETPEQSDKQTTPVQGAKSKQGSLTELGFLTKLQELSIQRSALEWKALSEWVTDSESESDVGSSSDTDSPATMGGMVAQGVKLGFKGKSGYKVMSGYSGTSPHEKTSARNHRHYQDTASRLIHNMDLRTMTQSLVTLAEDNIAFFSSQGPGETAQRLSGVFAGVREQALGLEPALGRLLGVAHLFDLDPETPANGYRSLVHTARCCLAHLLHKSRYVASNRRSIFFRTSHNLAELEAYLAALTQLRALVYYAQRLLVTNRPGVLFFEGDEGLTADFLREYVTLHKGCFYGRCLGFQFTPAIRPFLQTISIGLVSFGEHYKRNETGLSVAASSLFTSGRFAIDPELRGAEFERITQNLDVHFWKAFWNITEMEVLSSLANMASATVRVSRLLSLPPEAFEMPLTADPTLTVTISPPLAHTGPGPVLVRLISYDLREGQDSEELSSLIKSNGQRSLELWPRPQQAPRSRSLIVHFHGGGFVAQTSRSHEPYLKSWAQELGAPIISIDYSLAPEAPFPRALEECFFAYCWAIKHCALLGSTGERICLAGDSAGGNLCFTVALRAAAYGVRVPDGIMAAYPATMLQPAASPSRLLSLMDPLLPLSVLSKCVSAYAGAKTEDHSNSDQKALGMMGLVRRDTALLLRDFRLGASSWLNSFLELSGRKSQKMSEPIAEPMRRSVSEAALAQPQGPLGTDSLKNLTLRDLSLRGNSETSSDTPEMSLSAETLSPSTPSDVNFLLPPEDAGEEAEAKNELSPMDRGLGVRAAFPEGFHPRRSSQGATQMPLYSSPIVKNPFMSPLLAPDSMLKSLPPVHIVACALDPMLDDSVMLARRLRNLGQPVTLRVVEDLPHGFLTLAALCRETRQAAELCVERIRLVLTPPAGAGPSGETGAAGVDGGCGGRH
Nature of the test: Assay 3190.1: percent inhibition of hormone sensitive lipase by compound at 10 μM (fluorochrome-labeled triacylglyceride emulsion, HSL_FL). It is filed as biochemical. The following applies: 10 μM sample concentration; % activity relative to non-inhibited sample (no compound); 30 min preincubation at 25° C., 120 min incubation at 37° C.; read-out: Test 3190.1 HSL_FL % ACTIVITY
An excerpt:
The Hormone-sensitive lipase was provided by Dr. Cecilia Holm, from Lund University Sweden or produced and purified by Novo Nordisk (NN) using the reagents and protocols used by Dr. Holm. The substrates used are: ^3H-labeled triolein (TO) from Amersham, Buckinghamshire, U.K. cat No. TRA191; 5-20 Ci/mmol dissolved in toluene, triolein (Sigma, Cat. No. T-1740), fluorochrome-labeled triacylglyceride (cis-octadec-9-enoic acid 2-[12-(7-nitrobenzo[1,2,5]oxadiazol-4-ylamino)dodecanoyloxy]-1-cis-octadec-9-enoyloxymethyl-ethyl ester) prepared by Novo Nordisk (NN) by conventional methods, and 1,3-(di[^3H]-stearin), 2-(PEG-Biotin)glycerol prepared in collaboration with Amersham Pharmacia Biotech, UK and described in WO 01/073442. Phosphatidyl choline (PC) and phosphatidyl inositol (PI) are from Sigma (St Luis Mo. cat. Nos. P-3556 and P-5954 respectively). All other reagents are of commercial grade and obtained from various commercial sources.
3190.1: Assay for determination of percent inhibition of hormone sensitive lipase by compound at 10 μM sample concentration.
A lipid emulsion with fluorochrome-labeled triacylglyceride and phospholipid is used as substrate with a standard concentration of highly purified HSL (12 μg/mL initial concentration corresponding to 600 ng/mL final concentration). BSA is added as product acceptor receptor. The transfer of the fluorochrome from the lipid phase to the water (BSA) phase changes the fluorescent properties of the fluorochrome. The changes can be monitored on a fluorimeter with an excitation wavelength of 450 nm and an emission wavelength of 545 nm.
Compound and HSL (20 μL compound, 10 μL enzyme and 70 μL PED-BSA buffer) is pre-incubated for 30 min at 25° C. before addition of substrate (100 μL). Amount of formed product is measured after 120 min incubation at 37° C.
Results are given as percent activity relative to a non-inhibited sample (no compound).
Consider `Cc1ccc(Cc2ccc(OC(=O)N3CCC(On4cccn4)CC3)cc2)nc1` [Example 48, 4-(Pyrazol-1-yloxy)-piperidine-1-carboxylic acid 4-(5-methyl-pyridin-2-ylmethyl)-phenyl ester], for which the activity at 10 µM turned out to be 1%. For `Cc1ccc(Cc2ccc(OC(=O)N3CCC(Oc4ccccc4)CC3)cc2)cn1` [Example 50, 4-Phenoxy-piperidine-1-carboxylic acid 4-(6-methyl-pyridin-3-ylmethyl)-phenyl ester] the value was 3%. Next, `C=CCOC(=O)Cc1ccc(OC2CCN(C(=O)Oc3ccc(CCN4C(=O)CC(C)(C)CC4=O)cc3)CC2)cc1` [Example 55, 4-(4-Allyloxycarbonylmethyl-phenoxy)-piperidine-1-carboxylic acid 4-[2-(4,4-dimethyl-2,6-dioxo-piperidin-1-yl)-ethyl]-phenyl ester]: 1%. For `CC1(C)CC(=O)N(CCc2ccc(OC(=O)N3CCC(Oc4ccc(C(=O)O)cc4)CC3)cc2)C(=O)C1` [Example 59, 4-(4-Carboxy-phenoxy)-piperidine-1-carboxylic acid 4-[2-(4,4-dimethyl-2,6-dioxo-piperidin-1-yl)-ethyl]-phenyl ester] the value was 31%; for `O=C(Nc1ccc(OC(=O)N2CCC(On3cccn3)CC2)nc1)c1ccccc1` [Example 61, 4-(Pyrazol-1-yloxy)-piperidine-1-carboxylic acid 5-benzoylamino-pyridin-2-yl ester], 15%; for `O=C(Oc1ccc(Cc2ccc(C(F)(F)F)cc2)cc1)N1CCC(Cc2ncccn2)CC1` [Example 67, 4-Pyrimidin-2-ylmethyl-piperidine-1-carboxylic acid 4-(4-trifluoromethyl-benzyl)-phenyl ester], 4%. Regarding `O=C(Oc1ccc(Oc2ccc(C(F)(F)F)cn2)cc1)N1CCC(Cc2ccsc2)CC1` [Example 68, 4-Thiophen-3-ylmethyl-piperidine-1-carboxylic acid 4-(5-trifluoromethyl-pyridin-2-yloxy)-phenyl ester], the activity at 10 µM came out at 3%. For `Cc1ccc(CC2CCN(C(=O)Oc3ccc(Cc4ccc(C(F)(F)F)cc4)cc3)CC2)nc1` [Example 71, 4-(5-Methyl-pyridin-2-ylmethyl)-piperidine-1-carboxylic acid 4-(4-trifluoromethyl-benzyl)-phenyl ester] the value was 9%; for `O=C(O)Cc1ccc(CC2CCN(C(=O)Oc3ccc(Cc4ccc(C(F)(F)F)cc4)cc3)CC2)cc1` [Example 74, 4-(4-Carboxymethyl-benzyl)-piperidine-1-carboxylic acid 4-(4-trifluoromethyl-benzyl)-phenyl ester], 3%; for `O=C(O)Cc1ccc(OC2CCN(C(=O)Oc3ccc(C(=O)NCCc4ccccc4)cc3)CC2)cc1` [Example 85, 4-(4-Carboxymethyl-phenoxy)-piperidine-1-carboxylic acid 4-phenethylcarbamoyl-phenyl ester], 5%.

As to `O=C(O)Cc1ccc(OC2CCN(C(=O)Oc3ccc(C(=O)NCC4CCCCC4)cc3)CC2)cc1` [Example 88, 4-(4-Carboxymethyl-phenoxy)-piperidine-1-carboxylic acid 4-(cyclohexylmethyl-carbamoyl)-phenyl ester], the activity at 10 µM came to 3%. For `O=C(O)Cc1ccc(OC2CCN(C(=O)Oc3ccc(C(=O)NCCc4cccs4)cc3)CC2)cc1` [Example 91, 4-(4-Carboxymethyl-phenoxy)-piperidine-1-carboxylic acid 4-(2-thiophen-2-yl-ethylcarbamoyl)-phenyl ester] the value was 10%; for `O=C(O)Cc1ccc(OC2CCN(C(=O)Oc3ccc(CCOc4ccc(-n5cnnc5)cc4)cc3)CC2)cc1` [Example 97, 4-(4-Carboxymethyl-phenoxy)-piperidine-1-carboxylic acid 4-[2-(4-[1,2,4]triazol-4-yl-phenoxy)-ethyl]-phenyl ester], 15%.

With `O=C(O)Cc1ccc(OC2CCN(C(=O)Oc3ccc(Cc4ncc(C(F)(F)F)cc4Cl)cc3)CC2)cc1` [Example 102, 4-(4-Carboxymethyl-phenoxy)-piperidine-1-carboxylic acid 4-(3-chloro-5-trifluoromethyl-pyridin-2-ylmethyl)-phenyl ester], the activity at 10 µM stood at 11%.

As for `O=C(O)Cc1ccc(OC2CCN(C(=O)Oc3ccc(Oc4ccc(C(F)(F)F)cc4)cc3)CC2)cc1` [Example 103, 4-(4-Carboxymethyl-phenoxy)-piperidine-1-carboxylic acid 4-(4-trifluoromethyl-phenoxy)-phenyl ester], the activity at 10 µM came to 6%. Next, `CC(C)(C)CCNC(=O)c1ccc(OC(=O)N2CCC(Oc3ccc(C(=O)O)cc3)CC2)cc1` [Example 105, 4-(4-Carboxy-phenoxy)-piperidine-1-carboxylic acid 4-(3,3-dimethyl-butylcarbamoyl)-phenyl ester]: 11%; `O=C(O)Cc1cccc(OC2CCN(C(=O)Oc3ccc(Oc4ccc(C(F)(F)F)cn4)cc3)CC2)c1` [Example 110, 4-(3-Carboxymethyl-phenoxy)-piperidine-1-carboxylic acid 4-(5-trifluoromethyl-pyridin-2-yloxy)-phenyl ester]: 20%. For `O=C(O)CCc1cccc(OC2CCN(C(=O)Oc3ccc(Oc4ccc(C(F)(F)F)cn4)cc3)CC2)c1` [Example 112, 4-[3-(2-Carboxy-ethyl)-phenoxy]-piperidine-1-carboxylic acid 4-(5-trifluoromethyl-pyridin-2-yloxy)-phenyl ester] the value was 14%.

As to `O=C(O)Cc1ccc(OC2CCN(C(=O)Oc3ccc(Oc4ccc(Cl)cn4)cc3)CC2)cc1` [Example 117, 4-(4-Carboxymethyl-phenoxy)-piperidine-1-carboxylic acid 4-(5-chloro-pyridin-2-yloxy)-phenyl ester], the activity at 10 µM was found to be 8%.
